These results are taken from ChEMBL document CHEMBL2086295, “The design, synthesis, in silico ADME profiling, antiplasmodial and antimycobacterial evaluation of new arylamino quinoline derivatives” (Eur J Med Chem, 2012).

In series [1] the test system is Mycobacterium tuberculosis. Kind of series: Antimycobacterial activity against Mycobacterium tuberculosis H37Rv ATCC 27294 after 7 days by microplate alamar blue assay. Type of series: functional. Conditions: for MIC90: Mycobacterium tuberculosis, H37Rv ATCC 27294, 168 h.
Series [2] relates to Plasmodium falciparum. The series can be described thus: Antiplasmodial against chloroquine-rsistant Plasmodium falciparum K1 assessed as inhibition of [3H]hypoxanthine incorporation after 24 hrs by scintillation counting. Type of series: functional, organism-based.
Series [3] concerns Mycobacterium tuberculosis. The series can be described thus: Antimycobacterial activity against Mycobacterium tuberculosis H37Rv ATCC 27294 after 10 days by low oxygen recovery assay. Type of series: functional. To be noted: for MIC90: Mycobacterium tuberculosis, H37Rv ATCC 27294, 240 h.
The subject of series [4] is Plasmodium falciparum. The series can be described thus: Antiplasmodial against chloroquine-rsistant Plasmodium falciparum W2 after 2 days by flow cytometry. In kind it is functional, organism-based. To be noted: W2, 48 h.
Series [5] concerns Plasmodium falciparum. Kind of series: Antiplasmodial against chloroquine-sensitive Plasmodium falciparum 3D7 assessed as inhibition of [3H]hypoxanthine incorporation after 24 hrs by scintillation counting. In kind it is functional, organism-based.
The nature of series [6]: Kinetic solubility of the compound at pH 7.4. In kind it is physicochemical. Conditions: buffer, read-out: Kinetic_solubility.

The structures appear in SMILES notation. ≈ marks a conversion by molar mass, not a printed value.

Molecule `CN[C@@H]1[C@H](O[C@H]2[C@H](O[C@H]3[C@H](O)[C@@H](O)[C@H](N=C(N)N)[C@@H](O)[C@@H]3N=C(N)N)O[C@@H](C)[C@]2(O)C=O)O[C@@H](CO)[C@H](O)[C@H]1O` [STREPTOMYCIN] had an MIC90 in series [1] of 0.4 µM (≈ 0.233 µg/mL).
The molecule `O[C@@H](c1cc(C(F)(F)F)nc2c(C(F)(F)F)cccc12)[C@H]1CCCCN1` (relative stereo) [(S,R)-MEFLOQUINE] gave an MIC90 in series [1] of 10 µM (≈ 3.78 µg/mL).
In the case of `CN(C)C(c1cc(C(F)(F)F)nc2c(C(F)(F)F)cccc12)c1nnnn1C(C)(C)C` (stereo not given), in series [1], the MIC90 was > 160 µM. Further, the IC50 with Plasmodium falciparum [2] turned out to be 4.53 µM.
In the case of `NNC(=O)c1ccncc1` [ISONIAZID], in series [1], the “inhibition (INH)” value is reported as 92% and the MIC90 came out at 0.23 µM (≈ 0.0315 µg/mL). In addition, in series [3], the “inhibition (INH)” value is 64% and the MIC90 is > 128 µM.
For the molecule `CCN(CC)C(c1cc(C(F)(F)F)nc2c(C(F)(F)F)cccc12)c1nnnn1C(C)(C)C` (stereo not given), the MIC90 in series [1] was > 160 µM. The IC50 in the series on Plasmodium falciparum [2] stood at 2.32 µM.
As for `CO[C@H]1/C=C/O[C@@]2(C)Oc3c(C)c(O)c4c(O)c(c(/C=N/N5CCN(C)CC5)c(O)c4c3C2=O)NC(=O)/C(C)=C\C=C\[C@H](C)[C@H](O)[C@@H](C)[C@@H](O)[C@@H](C)[C@H](OC(C)=O)[C@@H]1C` [RIFAMPIN], the “inhibition (INH)” value in series [1] was determined as 100%; in series [3], 98%. In addition, the MIC90 in series [1] amounted to 0.05 µM (≈ 0.0411 µg/mL); in series [3] it was 1.93 µM (≈ 1.59 µg/mL).
In turn, `NC[C@H]1O[C@H](O[C@H]2[C@H](O)[C@@H](O[C@H]3O[C@H](CO)[C@@H](O)[C@H](N)[C@H]3O)[C@H](N)C[C@@H]2N)[C@H](O)[C@@H](O)[C@@H]1O` [KANAMYCIN] returned an MIC90 in series [1] of 3.12 µM (≈ 1.51 µg/mL). This lies in the single-digit micromolar range.
Take `COc1ccc2nccc(C(c3nnn[nH]3)N3CCOCC3)c2c1` (stereo not given): the values for the half-maximal inhibitory concentration (IC50) in the series with Plasmodium falciparum [4], in the series on Plasmodium falciparum [5] and with Plasmodium falciparum [2] were > 10 µM, 8.62 µM and 6.74 µM, respectively. Further, the solubility kinetic in series [6] is 202 µM (≈ 65.9 µg/mL). For the same molecule, the “inhibition (INH)” value came to 0% in series [1] and 1% in series [3]. Further, the MIC90 in series [1] and in series [3] was > 128 µM in each case.
For `COc1ccc2nccc(C(c3nnnn3C(C)(C)C)N(C)C)c2c1` (stereo not given), the half-maximal inhibitory concentration (IC50) in the series on Plasmodium falciparum [4] is > 10 µM; in the series with Plasmodium falciparum [5], 1.31 µM; with Plasmodium falciparum [2], 1.31 µM. In series [6], the solubility kinetic stood at 189 µM (≈ 64.5 µg/mL). For the same molecule, the “inhibition (INH)” value in series [1] is on record as 16%; in series [3] it was 42%. The MIC90 in series [1] and in series [3] was > 128 µM in each case.
As for `COc1ccc2nccc(C(c3nnnn3C(C)(C)C)N3CCCC3)c2c1` (stereo not given), the half-maximal inhibitory concentration (IC50) is > 10 µM in the series on Plasmodium falciparum [4], 13.8 µM in the series on Plasmodium falciparum [5] and 13.8 µM in the series on Plasmodium falciparum [2]. Also, the “inhibition (INH)” value in series [1] amounted to 24%; in series [3], 30%. Moreover, the MIC90 in series [1] and in series [3] was > 128 µM in each case.
On to `COc1ccc2nccc(C(c3nnnn3C(C)(C)C)N3CCOCC3)c2c1` (stereo not given), for which the IC50 was > 10 µM with Plasmodium falciparum [4], 0.98 µM with Plasmodium falciparum [5] and 1.23 µM in the series with Plasmodium falciparum [2]. Further, the solubility kinetic in series [6] is 179 µM (≈ 68.3 µg/mL). Further, the “inhibition (INH)” value in series [1] was 0%; in series [3] it was 32%. For the same molecule, the MIC90 in series [1] and in series [3] was > 128 µM each time.
Turning to `COc1ccc2nccc(C(c3nnnn3C(C)(C)C)N3CCCCC3)c2c1` (stereo not given), the 50% inhibitory concentration (IC50) with Plasmodium falciparum [4] was > 10 µM; in the series with Plasmodium falciparum [5], 0.647 µM; in the series with Plasmodium falciparum [2], 2.63 µM. The solubility kinetic in series [6] was 114 µM (≈ 43.5 µg/mL). Besides, the “inhibition (INH)” value in series [1] is 98%; in series [3], 64%. In addition, the MIC90 in series [1] was 92.5 µM (≈ 35.2 µg/mL); in series [3], > 128 µM.
With `COc1ccc2nccc(C(c3nnnn3C(C)(C)C)N3CCN(C)CC3)c2c1` (stereo not given), the IC50 was determined as 8.39 µM in the series on Plasmodium falciparum [4], 16.8 µM in the series on Plasmodium falciparum [5] and 7.95 µM in the series with Plasmodium falciparum [2]. Also, the “inhibition (INH)” value in series [1] and in series [3] was 0% in each case. In addition, the MIC90 in series [1] and in series [3] was > 128 µM throughout.
Take `O=[N+]([O-])c1cn2c(n1)OC[C@@H](OCc1ccc(OC(F)(F)F)cc1)C2` [PRETOMANID]: the “inhibition (INH)” value in series [1] was determined as 99%; in series [3] it was 100%. Besides, the MIC90 in series [1] turned out to be 0.12 µM (≈ 0.0431 µg/mL); in series [3], 3.78 µM (≈ 1.36 µg/mL).
With `C=C[C@H]1CN2CC[C@H]1C[C@H]2[C@H](O)c1ccnc2ccc(OC)cc12` [QUININE], the values for the IC50 with Plasmodium falciparum [4], in the series with Plasmodium falciparum [5] and in the series on Plasmodium falciparum [2] were 0.0187 µM, 0.0007 µM and 0.0204 µM, respectively. In addition, the “inhibition (INH)” value worked out at 95% in series [1] and 98% in series [3]. Moreover, the MIC90 in series [1] is 120 µM (≈ 38.8 µg/mL); in series [3], 122 µM (≈ 39.6 µg/mL).
Consider `CCN(CC)C(c1ccnc2ccc(OC)cc12)c1nnnn1C(C)(C)C` (stereo not given), for which the figures for the concentration for half-maximal inhibition (IC50) with Plasmodium falciparum [4], in the series on Plasmodium falciparum [5] and in the series with Plasmodium falciparum [2] were > 10 µM, 2.39 µM and 2.39 µM, respectively. In series [6], the solubility kinetic came out at 137 µM (≈ 50.4 µg/mL). For the same molecule, the “inhibition (INH)” value is recorded as 83% in series [1] and 94% in series [3]. Further, the MIC90 in series [1] was > 128 µM; in series [3] it was 123 µM (≈ 45.4 µg/mL).
